Series [1] has as its system HaCaT cells. Kind of series: Lactate dehydrogenase (LDH) release assay in HaCaT cells. The format is cell-based. To be noted: 24 h. As to the method: Cells were passaged using trypsin-EDTA (Gibco Life Technologies, Carlsbad, CA, USA) and cultured in 24-well plates (2.5 × 10^4 cells per well). Experiments were conducted in DMEM with 2% FBS.
Release of lactate dehydrogenase (LDH) from the cytosol to culture medium is a marker of cell death. The assay was performed after 24 h incubation of HaCaT cells in 24-well plates with investigated concentrations of each compound. The activity of LDH released from the cytosol of damaged cells to the supernatant was measured using the protocol of the cytotoxicity detection kit LDH test described by the manufacturer (Roche Diagnostics, Berlin, Germany). Absorbance was measured at 490 nm using a microplate reader (using Epoch microplate reader, BioTek Inc., Winooski, VT, USA) equipped with Gen5 software (BioTech Instruments, Inc., Biokom, Janki, Polska)
Compounds mediated cytotoxicity expressed as the LDH release (%) was determined by the following equation: [(A test sample—A low control)/(A high control—A low control)] × 100% (A-absorbance); where “low control” were cells in DMEM with 2% FBS without tested compounds, and “high control” were cells incubated in DMEM with 2% FBS with 10% Triton X-100 (100% LDH release).

Another series relates to MT-4 cells. Description: Cytotoxicity against mock-infected MT-4 cells (MTT). The series is classed as cell-based, human. To be noted: concentration reducing viability of mock-infected MT-4 cells by 50%, 96 h. The method, boiled down: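 Uninfected MT-4 cells (HTLV-1-transformed human CD4+ T cells) seeded at 1 × 10^5 cells/mL in RPMI-1640 with 10% FBS and grown with serially diluted compounds at 37 °C, 5% CO2. Viability read by MTT after 96 h.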

A further series deals with CRL7065. Description: Antiproliferative assay (MTT), normal cell line. The format is cell-based, human. The following applies: normal foreskin fibroblasts, concentration reducing cell proliferation by 50%, 96 h. As for the experimental part: (§1) Cell lines derived from human solid tumors were: Skin melanoma (SK-MEL-28); prostate carcinoma (DU-145). Normal tissues foreskin fibroblasts (CRL-7065) were also used. Cells were seeded at 1 × 10^5 cells/mL in 96 well plates in specific media supplemented with 10% FCS and antibiotics, as above. Cell cultures were then incubated at 37 °C in a humidified, 5% CO2 atmosphere in the absence or presence of serial dilutions of test compounds. Cell viability was determined after 96 h at 37 °C by the MTT method.

Another series relates to SK-MEL-28. Description: Antiproliferative assay (MTT). The format is cell-based, human. To be noted: skin melanoma, concentration reducing cell proliferation by 50%, 96 h. As for the experimental part: as §1
The next series has as its system DU145. Description: Antiproliferative assay (MTT). The format is cell-based, human. The following applies: prostate carcinoma, concentration reducing cell proliferation by 50%, 96 h. As to the method: as §1
In another series the test system is WIL-2NS. Kind of series: Antiproliferative assay (MTT). The format is cell-based, human. The following applies: concentration reducing cell proliferation by 50%, 96 h, mean of three determinations. As to the method: (§2) Cell lines derived from human hematological tumors were: CD4+ human T-cells containing an integrated HTLV-1 genome (MT-4); CD4+ human acute T-lymphoblastic leukemia (CCRF-CEM); human splenic B-lymphoblastoid cells (WIL-2NS); human acute B-lymphoblastic leukemia (CCRF-SB). Cells were seeded at an initial density of 1 × 10^5 cells/mL in 96 well plates in RPMI-1640 medium supplemented with 10% fetal calf serum (FCS), 100 units/mL penicillin G and 100 μg/mL streptomycin.
as §1

The next series deals with CCRF-SB. Kind of series: Antiproliferative assay (MTT). The series is classed as cell-based, human. The following applies: concentration reducing cell proliferation by 50%, 96 h, mean of three determinations. As for the experimental part: as §2, §1
A further series relates to CCRF-CEM. Kind of series: Antiproliferative assay (MTT). The format is cell-based, human. The following applies: concentration reducing cell proliferation by 50%, 96 h, mean of three determinations. As for the experimental part: as §2, §1
Another series relates to MT-4. Kind of series: Antiproliferative assay (MTT). The series is classed as cell-based, human. To be noted: concentration reducing cell proliferation by 50%, 96 h, mean of three determinations. As to the method: as §2, §1
Series [2] deals with HaCaT cells. Kind of series: Proliferation rate in cultures of HaCaT cells (trypan blue counting). The series is classed as cell-based, human. To be noted: lowest concentrations (8 µM for 11 and 13, 37 µM for 25), 48 h. As to the method:
(§3) Human immortal keratinocyte cell line from adult human skin (HaCaT) was purchased from American Type Culture Collection (Rockville, MD, USA), and cultured in Dulbecco’s Modified Eagle’s Medium (DMEM), supplemented with antibiotics (penicillin and streptomycin), 10% heat-inactivated FBS-fetal bovine serum (Gibco Life Technologies, Carlsbad, CA, USA) at 37 °C and 5% CO2 atmosphere. Cells were passaged using trypsin-EDTA (Gibco Life Technologies, Carlsbad, CA, USA) and cultured in 24-well plates (2.5 × 10^4 cells per well). Experiments were conducted in DMEM with 2% FBS.
After 48 h incubation with the lowest concentration of the tested compound the increased number of viable cells were assessed by direct counting of cells using trypan blue with a Countess Automated Cell Counter (Invitrogen, Carlsbad, CA, USA). The results are presented as a % of viable and dead cells versus control.

The next series has as its system HIV-1 IIIB. Kind of series: Anti-HIV-1 activity: protection of MT-4 cells from virus-induced cytopathogenicity (MTT). The series is classed as cell-based, Human Immunodeficiency Virus type-1. To be noted: 50% protection of MT-4 cells from HIV-1 induced cytopathogenicity, MTT, 4-day incubation; read-out: HIV-1IIIB EC50. In a few lines: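 MT-4 cells (1 × 10^4/well) infected with HIV-1 IIIB at m.o.i. 0.01 (100 CCID50) in presence of serial compound dilutions. Protection from virus-induced cytopathogenicity measured by MTT viability after 4 days at 37 °C.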
(Cytopathic effects are the visible damage that an infection or toxin causes in cultured cells.)

Series [3] relates to HaCaT cells. Description: Cell viability in HaCaT cells (MTT mitochondrial reduction). The series is classed as cell-based, human. As to the method:
as §3
The cell viability assay was assessed by the determination of MTT salt (3-(4,5-dimethylthiazol-2-yl)-2,5-diphenyltetrazolium bromide, Sigma-Aldrich Chemie, Buchs, Germany) conversion by mitochondrial dehydrogenase. […] Absorbance of solubilized formazan was measured spectrophotometrically at 570 nm (using Epoch microplate reader, BioTek Inc., Winooski, VT, USA, equipped with Gen5 software (BioTech Instruments, Inc., Biokom, Janki, Polska).
Cell viability was presented as a percent of MTT in the treated cells versus the control (cells incubated in serum-free DMEM without extracts). The relative MTT level (%) was calculated as [A]/[B] × 100, where [A] is the absorbance of the test sample and [B] is the absorbance of the control sample containing the untreated cells. […]

By CC50 is commonly meant the concentration that lowers cell viability or growth by half. Usually EC50 stands for the concentration giving half of the maximal effect.

On to `Cc1ccc(NC(=S)Nc2ccc(Cl)c([N+](=O)[O-])c2)cc1Cl` [Compound 13], for which, in the series with HaCaT cells [1], the “cell mortality (LDH release) increased to” value worked out at 30%. Also, in the series on HaCaT cells [1] (concentrations 8 and 16 µM), the “release of LDH” value is given as about 10%. Besides, the CC50 in the series with MT-4 cells is 8 µM; in the series on CRL7065, 16 µM; in the series with SK-MEL-28, 6 µM; in the series on DU145, 7 µM; in the series with WIL-2NS it was 7.6 µM; in the series on CCRF-SB, 6.7 µM. Moreover, the CC50 in the series on CCRF-CEM is 4 µM; in the series with MT-4 it was 8 µM. In addition, in the series with HaCaT cells [2], the “inhibition of viable cell proliferation” value is reported as 30–40%. Besides, the EC50 in the series on HIV-1 IIIB was over 8 µM. The “cytotoxicity (MTT)” value in the series with HaCaT cells [3] turned out to be 50%.

The values are drawn from PMC6222614, “Disubstituted 4-Chloro-3-nitrophenylthiourea Derivatives: Antimicrobial and Cytotoxic Studies” (Molecules : A Journal of Synthetic Chemistry and Natural …, 2018).
